The source of these data is publication PMC10672332, “Lecanicilliums A–F, Thiodiketopiperazine-Class Alkaloids from a Mangrove Sediment-Derived Fungus Lecanicillium kalimantanense” (Marine Drugs, 2023).

In one data set the test system is Bacillus subtilis BS01. Put plainly: Antibacterial assay, micro broth dilution. It is filed as cell-based. The settings on record: read-out: Antibacterial Activity (MIC) B. subtilis. As to the method: (§1) The micro broth dilution method was used to evaluate the antibacterial activities of compounds 1–19 against the growth of eight common pathogens: Bacillus subtilis BS01, Micrococcus luteus, Escherichia coli ATCC 25922, Staphylococcus aureus ATCC 6538, S. aureus MRSA, Streptococcus agalactiae ATCC 13813, S. iniae, and Pseudomonas aeruginosa ATCC 9027 in 96-well polystyrene plates. Vancomycin and ciprofloxacin were used as positive controls. Briefly, wells containing 100 μL bacteria dilutions (OD600 = 0.01) in Luria–Bertani (LB) medium were supplemented with different concentrations of 1–19 (80, 40, 20, 10, 5, 2.5, 1.25, and 0.625 μg/mL), vancomycin, and ciprofloxacin (40, 20, 10, 5, 2.5, 1.25, 0.625, and 0.3125 μg/mL), respectively. The MICs were determined after 24 hours’ incubation at 37 °C with the tested compounds.

The subject of data set [1] is Escherichia coli ATCC 25922. Put plainly: Antibacterial assay, micro broth dilution. Format: cell-based. The settings on record: read-out: Antibacterial Activity (MIC) E. coli. As to the method:
as §1
For orientation: Dilution methods test growth across graded concentrations, often in twofold steps.

The test system of data set [2] is Micrococcus luteus. Briefly: Antibacterial assay, micro broth dilution. Format: cell-based. The settings on record: read-out: Antibacterial Activity (MIC) M. luteus. As to the method: as §1
Data set [3] has as its system Pseudomonas aeruginosa ATCC 9027. Put plainly: Antibacterial assay, micro broth dilution. It is filed as cell-based. As to conditions: read-out: Antibacterial Activity (MIC) P. aeruginosa. As to the method: as §1
For another data set, the system named is S. aureus MRSA. Briefly: Antibacterial assay, micro broth dilution. Format: cell-based. As to conditions: Staphylococcus aureus, read-out: Antibacterial Activity (MIC) MRSA. As to the method:
as §1

For a further data set, the system named is S. iniae. Put plainly: Antibacterial assay, micro broth dilution. Format: cell-based. The settings on record: Streptococcus iniae, read-out: Antibacterial Activity (MIC) S. iniae. As to the method: as §1
Data set [4] has as its system Staphylococcus aureus ATCC 6538. Briefly: Antibacterial assay, micro broth dilution. It is filed as cell-based. As to conditions: read-out: Antibacterial Activity (MIC) S. aureus. The protocol:
as §1

The test system of data set [5] is Streptococcus agalactiae ATCC 13813. Put plainly: Antibacterial assay, micro broth dilution. It is filed as cell-based. The settings on record: read-out: Antibacterial Activity (MIC) S. agalactiae. The protocol:
as §1

The nature of data set [6]: Cytotoxicity, CCK-8 method. Format: cell-based. The settings on record: human. The protocol: (§2) Cytotoxic activity was evaluated using the human lung adenocarcinoma cell line H1975 and human hepatocellular carcinoma cell line HepG-2, using the CCK-8 method as described in our previous study. Briefly, each of the test compounds was dissolved in DMSO and further diluted to give final concentrations of 80, 40, 20, 10, 5, 2.5, and 1.25 μM, respectively. H1975 cells or HepG-2 cells (5 × 10^3 […]) were seeded in 96-well plates and treated with compounds at the indicated concentration for 24 hours and then 10 μL CCK-8 reagent was added to each well. The plates were incubated at 37 °C for another 4 hours. Finally, the optical density was measured at a wavelength of 450 nm with a Bio-Rad microplate reader. Dose–response curves were generated, and the IC50 values were calculated from the linear portion of log dose–response curves.
(In general: Formazan colour is commonly taken as a measure of viable cells.)

Data set [7] can be described thus: Cytotoxicity, CCK-8 method. Format: cell-based. The settings on record: human. As to the method:
as §2
This is another data set of the same source.

The subject of another data set is brine shrimps. Put plainly: Brine shrimp lethality bioassay. Format: in vivo. As to conditions: Table 3. From the text: The methods were the same as those used in our previous studies.
Data set [8] is described as follows: Antibacterial assays, summary in text over several pathogens. Format: cell-based. The settings on record: read-out: MIC values against four pathogens. As to the method:
as §1

In data set [9] the test system is Micrococcus luteus. Also on record: method as in PMID 25574740. As to conditions: cited from earlier work.
Another data set deals with Staphylococcus aureus. The settings on record: cited from earlier work.
The subject of data set [10] is human ovarian cancer cells. The settings on record: read-out: IC50 against human ovarian cancer cells; cited from earlier work.
[11] abbreviates: BS01, micro broth dilution, LB medium, 24 hours at 37 °C.
The mark [12] stands for this setting: ATCC25922, micro broth dilution, LB medium, 24 hours at 37 °C.
[13] abbreviates: micro broth dilution, LB medium, 24 hours at 37 °C.
The mark [14] stands for this setting: ATCC9027, micro broth dilution, LB medium, 24 hours at 37 °C.
The mark [15] stands for this setting: ATCC6538, micro broth dilution, LB medium, 24 hours at 37 °C.
Where [16] appears, read: ATCC13813, micro broth dilution, LB medium, 24 hours at 37 °C.
Where [17] appears, read: H1975 cells, CCK-8, 24 hours treatment, read-out: Cytotoxicity (IC50) against H1975.
The mark [18] stands for this setting: HepG-2 cells, CCK-8, 24 hours treatment, read-out: Cytotoxicity (IC50) against HepG-2.

In brackets after ≈: the same amount, converted by molar mass. Like-named read-outs stand apart in the source and are kept apart here. Bounds are passed on as bounds.

A word on the MIC: it is the lowest concentration found to suppress growth. One may read the IC50 as the midpoint of a concentration-inhibition curve.

`CSS[C@@]12CC3=COC=C[C@H](OC(C)=O)[C@H]3N1C(=O)[C@]1(SC)CC3=COC=C[C@H](OC(C)=O)[C@H]3N1C2=O` [Compound 5, Lecanicillium E]: the MIC in the data set on Bacillus subtilis BS01 (setting [11]) is 10 µg/mL (≈ 17.6 µM); in data set [1] (setting [12]), 80 µg/mL (≈ 141 µM); in the data set with Micrococcus luteus [2] (setting [13]) it was 40 µg/mL (≈ 70.6 µM); in data set [3] (setting [14]), over 80 µg/mL; with S. aureus MRSA (setting [13]) it was over 80 µg/mL; with S. iniae (setting [13]) it was 15 µg/mL (≈ 26.5 µM). The MIC is over 80 µg/mL in data set [4] (setting [15]), 25 µg/mL (≈ 44.1 µM) in data set [5] (setting [16]) and 10 to 40 µg/mL (≈ 17.6 to 70.6 µM) in data set [8]. Besides, the IC50 at 24 h in data set [6] was 16.3 µM; in data set [7], over 80 µM. Also, in the data set on brine shrimps, the “Toxicity (TC50) Brine Shrimp” value is 40 µg/mL.
For `CS[C@@]12CC3=COC=C[C@H](O)[C@H]3N1C(=O)[C@]1(SC)CC3=COC=C[C@H](O)[C@H]3N1C2=O` [Compound 9, bisdethiobis(methylsulfanyl)deacetylaranotin], the minimal inhibitory concentration (MIC) (in the data set with Bacillus subtilis BS01 (setting [11]); in data set [1] (setting [12]); in the data set with Micrococcus luteus [2] (setting [13]); in data set [3] (setting [14]); in the data set on S. aureus MRSA (setting [13]); in the data set on S. iniae (setting [13])) was over 80 µg/mL in each case. Besides, the MIC in data set [4] (setting [15]) and in [5] (setting [16]) was over 80 µg/mL each time. Moreover, the IC50 at 24 h in data set [6] and in [7] was over 80 µM each time. In addition, the “Toxicity (TC50) Brine Shrimp” value with brine shrimps is over 80 µg/mL.
For the compound `CS[C@@]12CC3=COC=C[C@H](OC(C)=O)[C@H]3N1C(=O)[C@]1(SC)CC3=COC=C[C@H](O)[C@H]3N1C2=O` [Compound 10, bisdethiobis(methylsulfanyl)-aranotin], the MIC (in the data set on Bacillus subtilis BS01 (setting [11]); in [1] (setting [12]); in the data set on Micrococcus luteus [2] (setting [13]); in data set [3] (setting [14]); in the data set with S. aureus MRSA (setting [13]); in the data set on S. iniae (setting [13])) was over 80 µg/mL in each case. Also, the MIC in data set [4] (setting [15]) and in data set [5] (setting [16]) was over 80 µg/mL in each case. Further, the IC50 at 24 h in data set [6] and in data set [7] was over 80 µM in each case. Besides, the “Toxicity (TC50) Brine Shrimp” value in the data set with brine shrimps is over 80 µg/mL.
On to `CS[C@@]12CC3=CC=C[C@H](OC(C)=O)[C@H]3N1C(=O)[C@]1(SC)CC3=COC=C[C@H](O)[C@H]3N1C2=O` [Compound 11, 8-acetyl-bisdethiobis(methylsulfanyl)apoaranotin], for which the minimal inhibitory concentration (MIC) was 60 µg/mL (≈ 126 µM) in the data set with Bacillus subtilis BS01 (setting [11]); over 80 µg/mL in [1] (setting [12]); over 80 µg/mL with Micrococcus luteus [2] (setting [13]); over 80 µg/mL in data set [3] (setting [14]); over 80 µg/mL in the data set on S. aureus MRSA (setting [13]); 50 µg/mL (≈ 105 µM) in the data set on S. iniae (setting [13]). The MIC in data set [4] (setting [15]) and in data set [5] (setting [16]) was over 80 µg/mL in each case. The half-inhibitory concentration (IC50) at 24 h in data set [6] is 69.3 µM; in [7] it was over 80 µM. The “Toxicity (TC50) Brine Shrimp” value with brine shrimps is over 80 µg/mL.
As for `CS[C@@]12CC3=CC=C[C@H](OC(C)=O)[C@H]3N1C(=O)[C@]1(SC)CC3=COC=C[C@H](OC(C)=O)[C@H]3N1C2=O` [Compound 12, bisdethiobis(methylsulfanyl)acetylapoaranotin], the MIC is over 80 µg/mL in the data set on Bacillus subtilis BS01 (setting [11]); over 80 µg/mL in data set [1] (setting [12]); 50 µg/mL (≈ 96.4 µM) in the data set with Micrococcus luteus [2] (setting [13]); over 80 µg/mL in data set [3] (setting [14]); over 80 µg/mL with S. aureus MRSA (setting [13]); over 80 µg/mL with S. iniae (setting [13]). Also, the MIC is over 80 µg/mL in data set [4] (setting [15]) and 50 µg/mL (≈ 96.4 µM) in [5] (setting [16]). In addition, the IC50 at 24 h in data set [6] and in data set [7] was over 80 µM in each case. In the data set on brine shrimps, the “Toxicity (TC50) Brine Shrimp” value stood at 50 µg/mL.
`CS[C@@]12CC3=CC=C[C@H](O)[C@H]3N1C(=O)[C@]1(SC)CC3=COC=C[C@H](O)[C@H]3N1C2=O` [Compound 14, bisdethiobis(methylsulfanyl)deacetylapoaranotin]: the MIC with Bacillus subtilis BS01 (setting [11]) was over 80 µg/mL; in [1] (setting [12]), over 80 µg/mL; in the data set on Micrococcus luteus [2] (setting [13]) it was over 80 µg/mL; in data set [3] (setting [14]), over 80 µg/mL; in the data set with S. aureus MRSA (setting [13]), over 80 µg/mL; with S. iniae (setting [13]), 40 µg/mL (≈ 92.1 µM). Also, the MIC in data set [4] (setting [15]) and in data set [5] (setting [16]) was over 80 µg/mL each time. Also, the IC50 at 24 h in [6] and in data set [7] was over 80 µM in each case. Moreover, the “Toxicity (TC50) Brine Shrimp” value in the data set with brine shrimps is over 80 µg/mL.
Regarding `CS[C@@]12CC3=CC=C[C@H](OC(C)=O)[C@H]3N1C(=O)[C@]1(SC)CC3=CC=C[C@H](OC(C)=O)[C@H]3N1C2=O` [Compound 15, haematocin], the MIC in the data set on Bacillus subtilis BS01 (BS01, 24 h) is 80 µg/mL (≈ 159 µM); in [1] (ATCC25922, 24 h), over 80 µg/mL; in the data set with Micrococcus luteus [2] (24 h) it was over 80 µg/mL; in data set [3] (ATCC9027, 24 h), over 80 µg/mL; with S. aureus MRSA (24 h), over 80 µg/mL; with S. iniae (24 h) it was over 80 µg/mL. Further, the MIC was over 80 µg/mL in data set [4] (ATCC6538, 24 h) and over 80 µg/mL in data set [5] (ATCC13813, 24 h). Also, the IC50 at 24 h in [6] (setting [17]) and in [7] (setting [18]) was over 80 µM in each case. In the data set with brine shrimps, the “Toxicity (TC50) Brine Shrimp” value was over 80 µg/mL.
For the compound `CS[C@@]1(Cc2ccccc2)NC(=O)[C@]2(SC)CC3=COC=C[C@H](O)[C@H]3N2C1=O` [Compound 18, emestrin H], the MIC with Bacillus subtilis BS01 (BS01, 24 h) is 80 µg/mL (≈ 191 µM); in data set [1] (ATCC25922, 24 h), over 80 µg/mL; in the data set on Micrococcus luteus [2] (24 h), over 80 µg/mL; in data set [3] (ATCC9027, 24 h), over 80 µg/mL; in the data set with S. aureus MRSA (24 h), over 80 µg/mL; with S. iniae (24 h), 40 µg/mL (≈ 95.6 µM). Moreover, the MIC in [4] (ATCC6538, 24 h) was over 80 µg/mL; in [5] (ATCC13813, 24 h) it was over 80 µg/mL. The IC50 at 24 h is 50.6 µM in data set [6] (setting [17]) and 41.2 µM in [7] (setting [18]). Further, in the data set with brine shrimps, the “Toxicity (TC50) Brine Shrimp” value is over 80 µg/mL.
Regarding `CS[C@@]12C[C@H]3[C@@H]([C@@H](O)C=C[C@@H]3O)N1C(=O)[C@]1(SC)C[C@H]3[C@@H]([C@@H](O)C=C[C@@H]3O)N1C2=O` [Penicibrocazine C], in the data set with Micrococcus luteus [9], the “MIC against Micrococcus luteus” value was 0.25 µg/mL (≈ 0.55 µM).
As to `O=C1N2[C@H]3C(=CC=C[C@@H]3O)C[C@]23SS[C@]12C[C@H]1[C@@H]([C@@H](O)C=C[C@@H]1O)N2C3=O` [brocazine G], the “MIC against Staphylococcus aureus” value in the data set with Staphylococcus aureus was 0.25 µg/mL (≈ 0.615 µM). Besides, the IC50 in data set [10] is 0.66 µM.
Consider `O=C(N[C@H](CO)[C@H](O)c1ccc([N+](=O)[O-])cc1)C(Cl)Cl` [chloromycetin], for which the “MIC against Micrococcus luteus” value with Micrococcus luteus [9] was 2.0 µg/mL (≈ 6.19 µM).
